# Paper PMC4674680, “An in cellulo-derived structure of PAK4 in complex with its inhibitor Inka1” (Nature Communications, 2015)
# No end group written: not given here.
# Assays:
# [1] = system: GFP–Inka1:PAK4cat co-crystals; experiment: Live imaging of growing GFP-Inka1:PAK4cat crystals, effect of PF-03758309; assay type: cell-based
# Protocol: Live cell imaging of crystal growth and SIM and confocal microscopy
# The cells were plated at 50% confluence glass cover slips overnight: plasmid transfection used GFP–iBox–Pak4cat and FLAG–iBox–Pak4cat constructs at a ratio of 4:1, to promote crystal nucleation. The cover slips were transferred to a Chamlide magnetic chamber (Live Cell Instruments, Seoul, Korea) with 5% CO2 at 37 °C for live imaging on an Zeiss Axiovert 200 M live-cell imaging with a × 10 objective. We imaged multiple chosen regions for 8 h at 6-min intervals. To measure crystal growth rate, we used instead a Nikon Eclipse Ti microscope equipped with spinning disk confocal attachment (Yokogawa CSU-22 module) to avoid photo-damage. The cells were imaged at × 60 1.4 numerical aperture (NA) objective at 2-min intervals. For SIM and confocal imaging, cells were fixed in non-hardening mounting media (Vectashield). The slides were imaged by Delta vision OMX SIM with a × 100 1.4 NA objective. […] The three-dimensional stacks were analysed by IMARIS software.
# PAK4 = details: binds in vitro; ATP-competitive; cited from earlier work
# Protocol: As the Flag-iBox-PAK4 crystal structure contained bound ATP, which is stabilized by the Inka1 inhibitory peptide (Fig. 3a), we were interested on the effect of the ATP-competitive PAK4 inhibitor PF-03758309, which binds with 10 nM affinity in vitro[45]. […] Thus, PF-03758309 appears to allow PAK4cat to incorporate with sub-stoichiometric levels of GFP–Inka1, consistent with PF-03758309 either reducing the affinity of GFP–Inka1 or allowing PAK4cat inco ...
# PAK4cat [2] = molecular target: T1, PAK4cat (Homo sapiens, UniProt O96013); experiment: In-cellulo crystal formation with PAK4cat; assay type: cell-based; design: PAK4 (286–591); details: transfected mammalian cells
# Protocol: Generation and harvesting of intracellular PAK4 crystals
# COS-7, HeLa, HEK293 or U2OS cells (35-mm culture dish or glass coverslip) were typically transfected with 2.5 μg of each plasmid in 2 ml of media using Lipofectamine 2000 (Invitrogen) or the GenomeONE Neo EX haemagglutinating virus of Japan envelope transfection kit (Cosmo Bio Co. Ltd) as per the manufacturer's protocol. Crystals were observed by phase-contrast microscopy using a × 10 objective (Nikon Eclipse TE300) 1–4 days post transfection. The structure of Flag–iBox–PAK4cat (Figs 2 and 3) was determined from crystals grown in COS-7 cells. The cells were harvested 3 days after transfection by incubating in PBS with 0.125% (w/v) trypsin and 25% (v/v) glycerol (Merck) for 30 min. Individual cells containing single crystals were then mounted in 0.1–0.2 mm cryoloops (Hampton Research) and flash cooled in liquid nitrogen.
# PAK4cat [3] = molecular target: T1, PAK4cat; experiment: In-vitro kinase assay, PAK4cat (phosphorylation of GST-Raf13); assay type: biochemical; design: PAK1 (1–545) and PAK4 (286–591), respectively; 6His (N); made in house; host or cells: Escherichia coli BL21-CodonPlus(DE3); details: Fig. 1d; n=3; IC50 from intercepts of the graphs; PAK 50 nM, 10 μM GST-Raf1S338, 10 μM ATP (γ32P), pH 7.3, 30 °C 20 min; peptide preincubated on ice 10 min
# Protocol: Purified PAK1 or PAK4 (50 nM in 25–50 μl) were incubated with 10 μM GST-Raf1S338 peptide in 10 μM ATP (2 μCi of γ32P ATP) of kinase buffer (25 mM HEPES, pH 7.3, 0.1% Triton X-100, 50 mM KCl, 10 mM MgCl2, 1 mM dithiothreitol) at 30 °C for 20 min. Samples were analysed by SDS–PAGE or adsorption of the GST substrate mix onto polyvinylidene difluoride membranes, followed by extensive washing to remove free γ32P-ATP. The synthetic peptides of 95% purity, as determined by HPLC and mass spectrometric analyses (GenScript), were soluble in aqueous PBS. Stock solutions (10 mM) were quantified via calculated extinction coefficients and absorbance measurements at 280 nm and stored at −80 °C. The diluted peptides were incubated at the indicated concentrations with the kinase on ice (10 min) before addition of γ32P ATP and subsequent incubation at 30 °C. The synthetic peptide array (Jerini Biotools) was phosphorylated in situ as described previously.
# T1 sequence (O96013 286-591): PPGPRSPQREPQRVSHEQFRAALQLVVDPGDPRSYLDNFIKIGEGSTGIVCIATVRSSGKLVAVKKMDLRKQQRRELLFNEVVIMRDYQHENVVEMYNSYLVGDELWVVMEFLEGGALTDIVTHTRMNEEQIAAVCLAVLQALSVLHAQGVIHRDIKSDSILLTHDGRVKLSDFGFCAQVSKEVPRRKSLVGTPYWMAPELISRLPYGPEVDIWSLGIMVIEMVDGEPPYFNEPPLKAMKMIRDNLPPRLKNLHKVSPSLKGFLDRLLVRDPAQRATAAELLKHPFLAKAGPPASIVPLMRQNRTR
compound,measurement,setting,value
Cc1nc(Nc2[nH]nc3c2CN(C(=O)N[C@H](CN(C)C)c2ccccc2)C3(C)C)c2sccc2n1 [PF-03758309],"Effect on crystal GFP signal, in words","[1]; 5 μM PF-03758309, elongation phase",depleted of GFP signal
same,"Effect on crystal growth rate, in words","[1]; after PF3758309 addition (5 μM), Fig. 6d",Crystal growth slowed
same,affinity,PAK4,10 nM
"Inka1 (255–285): C-terminal 31 amino acid of Inka1 (RPEPELPADVSRFAALMSCRSRQPIICNDVS; UniProt Q96EL1 255-285, looked up, fragment)","Induction of intracellular crystals with PAK4cat, in words",PAK4cat [2],able to induce crystals more efficiently than the Inka1 (166–203)
RGRSRQPLVLGDNC [iBox14],IC50,PAK4cat [3],5 µM
